Results reported in US6861555B2, “Calcium dicarboxylate ethers, methods of making same, and treatment of vascular disease and diabetes therewith” (Warner-Lambert Company, priority 2000, dated 2005).
Counter-ions that a name gives are not always drawn.

Tests used:
[1] = Bulk density (loose and tapped) of CI-1027 lots; settings: for Bulk Density Loose / Bulk Density Tapped: per lot
[2] = test system: Lp(a) and other lipoprotein parameters; assay: Effects on Lp(a) and other lipoprotein parameters, oral gavage for 2 weeks, monkeys; format: in vivo, Cynomolgus macaque monkeys
Experimental: (§1) The effects of CI-1027 of Formula II, Crystalline Form 1, on Lp(a) and other lipoprotein parameters in two models of elevated Lp(a) were determined by the following in vivo assays
(§2) Cynomolgus macaque monkeys and Lp(a) transgenic mice are dosed with CI-1027 at 3, 10, 30, 100, or 300 mg/kg for 2 weeks by oral gavage. […] In the transgenic mouse study, female mice were allocated into five groups with equivalent Lp(a) levels, and dosed by oral gavage with either vehicle alone or vehicle plus CI-1027 (3, 10, 30, and 100 mg/kg/day). Blood is sampled weekly (2 weeks prior to treatment, 2 weeks on treatment).

[3] = test system: Lp(a) and other lipoprotein parameters; assay: Effects on Lp(a) and other lipoprotein parameters, oral gavage, transgenic mouse study; format: in vivo, Lp(a) transgenic mice; set-up: maximum decrease in total plasma cholesterol: dose or concentration left out as unconfirmed
Experimental: as §1, §2

[4] = Pharmacokinetics of CI-1027 in rat; format: in vivo
[5] = Pharmacokinetics of CI-1027 in dog; format: in vivo
[6] = Pharmacokinetics of CI-1027 in monkey; format: in vivo
[7] = Pharmacokinetics of CI-1027, species not stated; format: in vivo
[8] = test system: plasma proteins; assay: In vitro binding to plasma proteins; format: in vitro ADME
[9] = test system: rat hepatocytes; assay: In vitro metabolism in rat hepatocytes using radiolabeled compound; format: in vitro ADME
[10] = test system: dog hepatocytes; assay: In vitro metabolism in dog hepatocytes using radiolabeled compound; format: in vitro ADME
[11] = test system: monkey hepatocytes; assay: In vitro metabolism in monkey hepatocytes using radiolabeled compound; format: in vitro ADME
[12] = Mean recovery of 14C dose in excreta, intact and bile-fistula cannulated rats; format: in vivo, rat; settings: 10 mg/kg
[13] = Mean recovery of 14C dose in excreta, intact and bile-fistula cannulated monkeys; format: in vivo, monkey; settings: 10 mg/kg
[14] = in vivo
Experimental: Metabolite profiling is performed by HPLC with radiometric detection and metabolites arc identified by LC/RAM/MS/MS.

[15] = Observed electrostatic charge retention of bulk product; format: physicochemical; settings: compared with amorphous product / salts dried without humidification
From the text: Additional analysis on the post-humidification dried dialkylcarboxylic acid ether monocalcium salt (II) is indicative of the formation of a salt which is associated with between about 0.1 and about 1 molar equivalent of water per equivalent of dialkylcarboxylic acid ether calcium salt (II), as shorn in FIGS. 1 and 15, for example.

[16] = Salt form and hygroscopic status: comparison of salts of 72953; format: physicochemical; settings: after complete drying
From the text: Following the general procedure of Example 1, 72953 was reacted with sodium hydroxide, potassium hydroxide, and acetylcholine in stoichiometric ratios of 1:1 per dialkanoic acid molecule, and 2:1 per dialkanoic acid molecule. The properties of the solids thus prepared, following complete drying, were compared to the calcium salt (CI-1027) from Example 1.

[17] = in vivo, other: intravenous (IV) and per orals (PO), intravenous (IV) and per orals (PO), read-out: apparent elimination half-life

For CC(C)(CCCCOCCCCC(C)(C)C(=O)[O-])C(=O)[O-].[Ca+2] [listing 1 of 2 here], the “Bulk Density Loose” value [1] was 0.336 g/mL and the “Bulk Density Tapped” value [1] was 0.439 g/mL.

For CC(C)(CCCCOCCCCC(C)(C)C(=O)[O-])C(=O)[O-].[Ca+2] [listing 2 of 2 here], the “bulk density, average” value ([1]; amorphous form) was “about 0.3 gm/mL”.

With “6-(5-carboxy-5-methyl-hexyloxy)-2,2-dimethylhexanoic acid monocalcium salt hydrate, Crystalline Form 1 [Example 1]” the “bulk density following tapping, average” value ([1]; highly crystalline salt after humidification process) was “about 0.4 g/mL”.

In the case of CC(C)(CCCCOCCCCC(C)(C)C(=O)[O-])C(=O)[O-].[Ca+2] [CD-3055], the “Bulk Density Loose” value [1] is reported as 0.280 g/mL and the “Bulk Density Tapped” value [1] is reported as 0.315 g/mL.

For CC(C)(CCCCOCCCCC(C)(C)C(=O)[O-])C(=O)[O-].[Ca+2] [CD-3082], the “Bulk Density Loose” value [1] was 0.234 g/mL and the “Bulk Density Tapped” value [1] was 0.337 g/mL.

For CC(C)(CCCCOCCCCC(C)(C)C(=O)[O-])C(=O)[O-].[Ca+2] [CD-3102], the “Bulk Density Loose” value [1] was 0.215 g/mL and the “Bulk Density Tapped” value [1] was 0.270 g/mL.

For CC(C)(CCCCOCCCCC(C)(C)C(=O)[O-])C(=O)[O-].[Ca+2] [CD-3103], the “Bulk Density Loose” value [1] was 0.343 g/mL and the “Bulk Density Tapped” value [1] was 0.484 g/mL.

With CC(C)(CCCCOCCCCC(C)(C)C(=O)[O-])C(=O)[O-].[Ca+2] [CD-3111] the “Bulk Density Loose” value [1] was 0.218 g/mL and the “Bulk Density Tapped” value [1] was 0.264 g/mL.

In the case of CC(C)(CCCCOCCCCC(C)(C)C(=O)[O-])C(=O)[O-].[Ca+2] [CD-3135], the “Bulk Density Loose” value [1] is reported as 0.242 g/mL and the “Bulk Density Tapped” value [1] is reported as 0.379 g/mL.

With CC(C)(CCCCOCCCCC(C)(C)C(=O)[O-])C(=O)[O-].[Ca+2] [CD-3221A] the “Bulk Density Loose” value [1] was 0.372 g/mL and the “Bulk Density Tapped” value [1] was 0.521 g/mL.

With CC(C)(CCCCOCCCCC(C)(C)C(=O)[O-])C(=O)[O-].[Ca+2] [CD-3243] the “Bulk Density Loose” value [1] was 0.235 g/mL and the “Bulk Density Tapped” value [1] was 0.300 g/mL.

In the case of CC(C)(CCCCOCCCCC(C)(C)C(=O)[O-])C(=O)[O-].[Ca+2] [CI-1027, 6-(5-carboxy-5-methyl-hexyloxy)-2,2-dimethylhexanoic acid monocalcium salt (1:1)], the “Lp(a) lowering” value ([2]; 3 mg/kg/day) is reported as −9%, the “Lp(a) lowering” value ([2]; 10 mg/kg/day) is reported as −23% and the “Lp(a) lowering” value ([2]; 30 mg/kg/day) is reported as −64%. The “Lp(a) lowering” value ([2]; 100 mg/kg/day) was −68%, the “Lp(a) lowering” value ([2]; 300 mg/kg/day) was −87% and the HDL cholesterol ([2]; 3-300 mg/kg) was “decreased”. For the same compound, the total plasma cholesterol ([2]; 3-300 mg/kg) was “decreased”, the “decrease in plasma Lp(a) compared to mice dosed with vehicle alone” value (“decrease … with vehicle alone” below) ([3]; female mice, 3 mg/kg/day oral gavage, after 1 week) was −15% and the “decrease … with vehicle alone” value ([3]; female mice, 10 mg/kg/day oral gavage, after 1 week) was −41%. For the same compound, the “decrease … with vehicle alone” value ([3]; female mice, 30 mg/kg/day oral gavage, after 1 week) was −54%, the “decrease … with vehicle alone” value ([3]; female mice, 100 mg/kg/day oral gavage, after 1 week) was −61% and the “HDL cholesterol (lipoprotein profiles by HPLC)” value ([3]; female mice, after 1 week) was “remained unchanged”. For the same compound, the “LDL cholesterol (lipoprotein profiles by HPLC)” value ([3]; female mice, after 1 week) was “significant decreases”, the “decrease in plasma apoB” value ([3]; female mice, after 1 week) was “up to 30%” and the “maximum decrease in total plasma cholesterol” value ([3]; female mice, after 1 week) was 32%. For the same compound, the “ratio of HDL cholesterol to VLDL+LDL cholesterol” value ([3]; with treatment, control value 0.39) was 0.65, the absorption [4] was “rapidly absorbed” and the half-life [4, 17] was 5 to 7 h. For the same compound, the absorption [5] was “rapidly absorbed”, the half-life [5, 17] was 17 to 31 h and the absorption [6] was “rapidly absorbed”. The half-life [6, 17] was 9 to 15 h, the Oral bioavailability [7] was “appeared to be high” and the enterohepatic recirculation [7] was “seemed to undergo enterohepatic recirculation”. The linearity of pharmacokinetics [7] was “nonlinear”, the “In vitro binding to plasma proteins” value [8] was “species and concentration dependent” and the primary binding protein [8] was “Albumin”. The “14C peaks found in hepatocyte incubation” value [9] was “two major ^14C peaks, intact drug, and a glucuronide conjugate”, the “14C peaks found in hepatocyte incubation” value [10] was “two major ^14C peaks, intact drug, and a glucuronide conjugate” and the “14C peaks found in hepatocyte incubation” value [11] was “two major ^14C peaks, intact drug, and a glucuronide conjugate”. The “Mean recovery in bile” value ([12]; Fistula Rat) was 87.5 percent ^14C dose, the “Mean recovery in feces” value ([12]; Fistula Rat) was 0.72 percent ^14C dose and the “Mean recovery in urine” value ([12]; Fistula Rat) was 10.5 percent ^14C dose. The Mean total recovery ([12]; Fistula Rat) was 98.7 percent ^14C dose, the “Mean recovery in feces” value ([12]; Intact Rat) was 56.9 percent ^14C dose and the “Mean recovery in urine” value ([12]; Intact Rat) was 37.0 percent ^14C dose. The Mean total recovery ([12]; Intact Rat) was 93.9 percent ^14C dose, the “Mean recovery in bile” value ([13]; Fistula Monkey) was 42.0 percent ^14C dose and the “Mean recovery in feces” value ([13]; Fistula Monkey) was 3.82 percent ^14C dose. The “Mean recovery in urine” value ([13]; Fistula Monkey) was 62.2 percent ^14C dose, the Mean total recovery ([13]; Fistula Monkey) was 108 percent ^14C dose and the “Mean recovery in feces” value ([13]; Monkey (intact)) was 17.3 percent ^14C dose. For the same compound, the “Mean recovery in urine” value ([13]; Monkey (intact)) was 78.1 percent ^14C dose, the Mean total recovery ([13]; Monkey (intact)) was 95.4 percent ^14C dose and the “metabolite detected in bile and urine” value [14] was “acyl-glucuronide is detected”. The “share of plasma radioactivity that was unchanged drug” value [14] was roughly 100%.

For CC(C)(CCCCOCCCCC(C)(C)C(=O)O)C(=O)O [Example 1, 6-(5-carboxy-5-methyl-hexyloxy)-2,2-dimethylhexanoic acid monocalcium salt hydrate, Crystalline Form 1], the “electrostatic character of bulk product” value ([15]; listed as CI-1027 hydrate Crystalline Form 1) was “less electrostatic than the amorphous form”, the “electrostatic character of bulk product” value ([15]; listed as Crystal Form 1) was “less capable of retaining an electrostatic charge” and the “Physical Properties of Solid (hygroscopic status)” value (“Physical Properties of Solid” for short) [16] was “None to Slight Hygroscopic”.

For CC(C)(CCCCOCCCCC(C)(C)C(=O)O)C(=O)O [Example 12, 6-(5-carboxy-5-methyl-hexyloxy)-2,2-dimethylhexanoic acid monocalcium salt. Crystalline Form 2], the “electrostatic character of bulk product” value ([15]; listed as Crystal Form 2, monocalcium salt) was “less capable of retaining an electrostatic charge”.

With CC(C)(CCCCOCCCCC(C)(C)C(=O)[O-])C(=O)[O-].C[N+](C)(C)CCO.C[N+](C)(C)CCO [di-choline] the “Physical Form” value [16] was “Oil”.

With CC(C)(CCCCOCCCCC(C)(C)C(=O)[O-])C(=O)[O-].[K+].[K+] [di-potassium] the “Physical Form” value [16] was “Solid” and the “Physical Properties of Solid” value [16] was “Very Hygroscopic”.

For CC(C)(CCCCOCCCCC(C)(C)C(=O)[O-])C(=O)[O-].[Na+].[Na+] [di-sodium], the “Physical Form” value [16] was “Solid” and the “Physical Properties of Solid” value [16] was “Very Hygroscopic”.

In the case of CC(C)(CCCCOCCCCC(C)(C)C(=O)O)C(=O)[O-].C[N+](C)(C)CCO [mono-choline], the “Physical Form” value [16] is reported as “Oil”.
